Results as given in patent US11382908B2, “Compositions and methods for treating inflammatory bowel disease” (The Broad Institute, Inc., priority 2017, dated 2022).

Tests used:
[1] = biological target: T1, CARD9-TRIM62 protein-protein interaction (Homo sapiens, UniProt Q9H257); assay: Luminex bead-based ELISA CARD9-TRIM62 protein-protein interaction assay; format: binding
T1 construct: expressed in transfected cells; host or cells: HEK293F (Life Technologies, R790-07), separate transient transfections, cleared lysates
T1 sequence (Q9H257 1-536): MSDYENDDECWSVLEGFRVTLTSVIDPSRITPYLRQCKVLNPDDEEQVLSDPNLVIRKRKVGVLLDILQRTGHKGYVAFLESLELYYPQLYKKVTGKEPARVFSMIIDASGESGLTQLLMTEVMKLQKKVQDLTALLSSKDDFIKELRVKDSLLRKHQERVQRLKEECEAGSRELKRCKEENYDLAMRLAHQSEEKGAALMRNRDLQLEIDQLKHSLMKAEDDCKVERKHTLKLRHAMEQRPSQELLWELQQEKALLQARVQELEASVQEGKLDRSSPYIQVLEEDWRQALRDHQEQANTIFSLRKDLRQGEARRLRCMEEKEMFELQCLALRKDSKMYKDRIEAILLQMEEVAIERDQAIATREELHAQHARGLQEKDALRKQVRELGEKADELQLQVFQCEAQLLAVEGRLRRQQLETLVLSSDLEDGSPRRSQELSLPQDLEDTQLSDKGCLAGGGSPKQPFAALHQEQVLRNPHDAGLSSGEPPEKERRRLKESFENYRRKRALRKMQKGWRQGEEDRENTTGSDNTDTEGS
Protocol: Flag-StrepII-CARD9 and TRIM62 were purified as described (Cao et al). TRIM62ΔRING and B30.2/SPRY were expressed in Sf9 cells in pFastBac as His8 fusion. For Luminex assay, HEK293F cells were transfected with 3XMyc-TRIM62 in pCMV and separately with Flag-CARD9 in pcDNA4/TO. Anti-Myc tag antibody (9E10) was conjugated to the beads and used for TRIM62 affinity capture from cleared lysates. Following the incubation with compounds, Flag-CARD9 lysate was added; after a series of washes and secondary PE-conjugated antibody incubation, readout was performed on MagPlex instruments.
HEK293F (Life Technologies, R790-07) cells were grown in Freestyle media (Cat. #12338) according to manufacturer's instructions. Cells were transiently transfected with 3XMyc-TRIM62 in pCMV and separately with Flag-CARD9 in pcDNA4/TO. Anti-Myc tag antibody (9E10, Sigma) was conjugated to the Luminex beads (10 spectral range beads in 10 separate reactions) using Pierce reagents/Luminex coupling kit. Flag-CARD9 and Myc-TRIM62 transfected cells were separately lysed in the lysis buffer (50 mM Tris pH 7.4, 150 mM NaCl, 0.5% NP40, protease inhibitors (Complete, Roche, 11873580001), phosphatase inhibitors (PhosStop, Roche, 4906845001)) and cleared by centrifugation at 10,000 g. Cleared TRIM62 lysates were added to the beads for Myc-mediated capture, incubated at room temperature for 1 hr, then washed lx and reconstituted in 1% BSA in PBS.
Screening compounds were pre-dispensed into assay-ready plates (twintecc, Eppendorf; 50 nl of 10 mM compound stock in DMSO per well). Cleared CARD9 lysate (20 μl per well) was added to the assay-ready plate and pre-incubated with the screening compounds for 30 min before addition of TRIM62-bound beads (300 beads per well, in 5 μl of 1% BSA in PBS). Plates were mixed on Bioshake IQ at 2400 rpm for 2 min and incubated for 40 min at room temperature. Plates were then washed on Biomek NX^P instrument with magnetic plate holders 1× with 1% BSA in PBS. Each 10 plates with non-identical spectral regions of beads were combined into one deep-well plate, and incubated with Flag-PE antibody conjugate (Abcam, ab72469) at the final dilution 1:400 for 1 hr. After 1× wash with 1% BSA in PBS, the readout was performed on Luminex MagPlex instruments with standard operating protocol. Bead quantity per well was employed as quality control measure, wells with bead count less than 20 were rejected from the analysis.

[2] = biological target: T2, ubiquitinylation of CARD9 by TRIM62 (Homo sapiens, UniProt Q9H257); assay: TRIM62-mediated ubiquitinylation assay with Western blot detection; format: biochemical
T2 construct: Full-length Flag-StrepII-CARD9 for AlphaLISA, DSF and NMR assays was expressed as previously described; StrepII (N); made in house; UBE1 and UBE2D2 purchased from LifeSensors, no catalogue numbers
T2 sequence (Q9H257 1-536): T1 sequence (Q9H257 1-536)
Protocol: For western blot detection, ubiquitinylation reactions contained 250 nM Flag-Strep-CARD9, 5 nM TRIM62, 5 μM of HA-tagged ubiquitin (Boston Biochem), 25 nM UBE1 (LifeSensors), 300 nM UBE2D2 (LifeSensors), 50 mM Tris pH=7.5, 5 mM MgCl2, 2.5 mM ATP, 1 mM DTT in a final volume of 20 μl. Reactions were quenched by the addition of the LDS sample buffer with 50 mM DTT. HA antibody F-7 (Santa Cruz) was used for the detection of polyubiquitin chains, and Flag M2 antibody from Sigma was used to detect Flag-StrepII-CARD9 as a loading control.

[3] = Truhit alphaLISA assay for non-specific alphaLISA inhibitors; details: percent AlphaLISA signal, 100% = DMSO control
Text: Data are expressed as mean of percent AlphaLISA signal (100%=mean AlphaLISA signal with DMSO control)+/−s.d. […] The alphaLISA findings were further corroborated by TRIM62-mediated ubiquitinylation assay coupled with Western blot detection (FIG. 2E).

[4] = system: NF-κB activation in THP-1 cells; assay: NF-κB luciferase reporter assay in THP-1 cells reconstituted with Dectin-1; format: cell-based; details: for WGP Dectin-1-mediated signaling to NF-κB, luciferase activity: WGP 50 μg/mL, 200 μM compound, 4-h time point
Protocol: (§1) THP-1 and HEK293T cells were from ATCC and cultured according to ATCC instructions. Cell cultures were regularly checked for mycoplasma contamination using a mycoplasma PCR test. BMDCs were isolated from femur and tibia of C57B/6 mice by harvesting bone marrows followed by hypotonic red blood cell lysis. Obtained bone marrow cells were cultured in DMEM (10% FBS, 1% penicillin/streptomycin, 1% glutamin) with 25 ng/ml GM-CSF.
CARD9 KO THP-1 cells were generated by a CRIPSR-based approach as previously described (Cao et al.). For the NF-κB luciferase assay, CARD9 KO or WT THP-1 cells lines were transduced with Dectin-1 (NM 022570) and a lentivirus-based NF-κB luciferase reporter, containing NF-κB responsive element upstream of minimal promoter and Luc2P54. CARD9 KO cells overexpressing Dectin-1 and the NF-κB luciferase reporter were rescued with indicated CARD9 constructs. For compound treatment, Compound 9 was pre-incubated with Dectin-1, NF-κB reporter expressing THP-1 cells for 2 hours, followed by stimulation with scleroglucan (50 μg/ml), whole glucan particles (WGP dispersible, Invivogen, 50 μg/ml), or LPS (100 ng/ml). Reporter luciferase activity was measured using Steadylite Plus reagent (PerkinElmer).

[5] = biological target: T2, ubiquitinylation of CARD9 by TRIM62; assay: AlphaLISA ubiquitinylation assay; format: biochemical; details: reconstituted E1-E2-E3 TRIM62 complex
Protocol: FlagStrep-CARD9 and TRIM62 were expressed and purified as previously described (Cao et al.). Assay-ready plates containing 80 nl of 10 mM compound in DMSO were used. Ubiquitinylation reactions contained 12.5 nM Flag-Strep-CARD9, 1.25 nM TRIM62, 500 nM ubiquitin, 10 nM UBE1 (LifeSensors), 200 nM UBE2D2 (LifeSensors), 50 mM Tris pH=7.5, 5 mM MgCl2, 2.5 mM ATP, 1 mM DTT, 0.005% Tween-20 in a final volume of 10 μl. To assemble reactions, all reaction components except ubiquitin and Trim62 were combined and dispensed at a 2× concentration in a volume of 5 μl using a Multi-Drop Combi Reagent Dispenser. Reactions were initiated by added ubiquitin and TRIM62 at a 2× concentration in a volume of 5 μL in the same manner. The reactions were incubated at ambient temperature for 90 min then stopped by the addition of 10 μl of 2× quench/detect solution using a 16-ViaFlow dispenser. The 2× quench/detect solution contained 100 mM HEPES pH=7.5, 300 mM NaCl, 0.01% Tween 20, 30 mM ETDA, 40 μg/ml Streptavidin-Donor beads, 10 μg/ml α-Flag-Acceptor beads (both from PerkinElmer) and 100 nM biotin-TUBE1 (LifeSensors). Plates were incubated at RT for an additional 1 h then read on a PerkinElmer Envision.

[6] = system: phosphorylation of IKK in primary bone marrow-derived dendritic cells; assay: Phospho-IKK FACS in bone marrow-derived dendritic cells; format: cell-based, C57B/6 mice; details: 200 μM compound; stimuli scleroglucan (Dectin-1) or LPS (TLR4 control)
Protocol: as §1
For phospho-IKK FACS analysis, the BMDCs were plated on day 7 in U bottom 96-well plates at 150,000 cells/well in DMEM, 10% FBS, 1% penicillin/streptomycin, glutamine and GM-CSF the day before the assay. Growth media was replaced with reduced serum media (2% FBS), at this time compound 9 was added to the appropriate wells (at 200 μM) and cells were incubated for 2 hours. Cells were stimulated with 50 μg/ml scleroglucan (Invivogen) or 100 ng/ml LPS (Sigma) for the indicated times at 37° C. At the end of the incubation, media was aspirated and cells were fixed in 4% PFA for 10 min at 37° C.; then resuspended in blocking buffer (3% BSA in permeabilization buffer, eBioscience). […] FACS analysis was run on Cytoflex instrument (Beckman Coulter) and analyzed using FlowJo software by sequentially gating on live/single cells/MHCII high cell population.

Molecule	inhibition of CARD9-TRIM62 protein-protein interaction (Luminex) [1]	inhibition of in vitro CARD9 ubiquitinylation (Western blot) [2]	non-specific alphaLISA inhibition (Truhit) [3]	WGP Dectin-1-mediated signaling to NF-κB, luciferase activity [4]	inhibition of polyubiquitinylation of CARD9 by TRIM62 (AlphaLISA) [5]	activation of Dectin-1-mediated signaling, NF-κB-driven luciferase reporter ([4]; 50 μg/mL WGP or scleroglucan)	phosphorylation of IKK (CARD9 signaling) [6]	NF-κB activation, luciferase reporter ([4]; scleroglucan or LPS stimuli, 2 hr and 4 hr)
scleroglucan [reference compound]	–	–	–	–	–	more potent ligand than WGP	–	–
NC(=O)C1(N2CCCCC2)CCN(c2ncc(NC(=O)c3ccc(Cl)cc3)cc2C(=O)O)CC1 [compound 27]	dose-dependent inhibitors	inhibition of in vitro CARD9 ubiquitinylation reaction	Nonspecific inhibition was not observed	–	inhibit the functional ubiquitinylation of CARD9 by TRIM62	–	–	–
NC(=O)C1(N2CCCCC2)CCN(c2ncc(NC(=O)c3cccc(Cl)c3)cc2C(=O)O)CC1 [compound 7]	dose-dependent inhibitors	inhibition of in vitro CARD9 ubiquitinylation reaction	Nonspecific inhibition was not observed	–	inhibit the functional ubiquitinylation of CARD9 by TRIM62	–	–	–
Cc1ccc(C(=O)Nc2cnc(N3CCC(C(N)=O)(N4CCCCC4)CC3)c(C(=O)O)c2)cc1 [compound 9]	dose-dependent inhibitors	inhibition of in vitro CARD9 ubiquitinylation reaction	Nonspecific inhibition was not observed	inhibited	inhibit the functional ubiquitinylation of CARD9 by TRIM62	–	attenuates CARD9 signaling in stimulus-dependent manner	attenuates CARD9 signaling in stimulus-dependent manner

Now from value to molecule, other results behind:

inhibition of CARD9-TRIM62 protein-protein interaction (Luminex) [1]	Molecule	inhibition of in vitro CARD9 ubiquitinylation (Western blot) [2]	non-specific alphaLISA inhibition (Truhit) [3]	WGP Dectin-1-mediated signaling to NF-κB, luciferase activity [4]	inhibition of polyubiquitinylation of CARD9 by TRIM62 (AlphaLISA) [5]	activation of Dectin-1-mediated signaling, NF-κB-driven luciferase reporter ([4]; 50 μg/mL WGP or scleroglucan)	phosphorylation of IKK (CARD9 signaling) [6]	NF-κB activation, luciferase reporter ([4]; scleroglucan or LPS stimuli, 2 hr and 4 hr)
dose-dependent inhibitors	NC(=O)C1(N2CCCCC2)CCN(c2ncc(NC(=O)c3ccccc3)cc2C(=O)O)CC1 [compound 6]	inhibition of in vitro CARD9 ubiquitinylation reaction	Nonspecific inhibition was not observed	inhibited	inhibit the functional ubiquitinylation of CARD9 by TRIM62	–	–	–
potent inhibitor	NC(=O)C1(N2CCCCC2)CCN(c2ccc(NC(=O)c3ccccc3F)cc2C(=O)O)CC1 [compound 11]	–	–	–	potent inhibitor	–	–	–
